Like-named read-outs stand apart in the source and are kept apart here.
How the values were obtained:
Assay type in all cases: cell-based, human
[1] = test system: HepG2 (Hepatocellular Carcinoma); assay: Cell viability analysis, hepatic cancer HepG2; conditions: Homo sapiens
[2] = test system: HI650 (Lung Adenocarcinoma); assay: Cell viability analysis, lung cancer HI650; conditions: Homo sapiens
[3] = test system: HeLa (Cervix Adenocarcinoma); assay: Cell viability analysis, cervical cancer HeLa; conditions: Homo sapiens, HeLa
[4] = test system: TSGH-8301 (Urinary Bladder Carcinoma); assay: Cell viability analysis, bladder cancer TSGH-8301; conditions: Homo sapiens
[5] = test system: A549 (Lung Adenocarcinoma); assay: Cell viability analysis, lung cancer A549; conditions: Homo sapiens
[6] = test system: MCF7 (Mammary Gland, Adenocarcinoma); assay: Cell viability analysis, breast cancer MCF7; conditions: Homo sapiens
[7] = test system: A375 (Amelanotic Melanoma); assay: Cell viability analysis, skin cancer A375; conditions: Homo sapiens
[8] = test system: PC3 (p53−) (Prostate Adenocarcinoma); assay: Cell viability analysis, prostate cancer PC3; conditions: Homo sapiens
[9] = test system: LoVo (Colorectal Adenocarcinoma); assay: Cell viability analysis, colon cancer LoVo; conditions: Homo sapiens, LoVo
[10] = test system: MKN-45 (Gastric Adenocarcinoma); assay: Cell viability analysis, gastric cancer MKN-45; conditions: Homo sapiens
cancer cell lines = assay: Cell viability analysis (WST-1) on cancer cell lines; conditions: drug 10 μM, 72 hours, WST-1; Table 3
[11] = test system: AGS (Gastric Adenocarcinoma); assay: Cell viability analysis, gastric cancer AGS; conditions: Homo sapiens
[12] = test system: HL-60 (Acute Promyelocytic Leukemia); assay: Cell viability analysis, leukemia HL-60; conditions: Homo sapiens
[13] = HepG2, 72 h, read-out: cell viability (survival rate), HepG2, drug 10 μM, 72 hours, WST-1, OD450 nm
[14] = NCI-H1650, 72 h, read-out: cell viability (survival rate), H1650, drug 10 μM, 72 hours, WST-1, OD450 nm
[15] = 72 h, read-out: cell viability (survival rate), HeLa, drug 10 μM, 72 hours, WST-1, OD450 nm
[16] = 72 h, read-out: cell viability (survival rate), TSGH, drug 10 μM, 72 hours, WST-1, OD450 nm
[17] = A549, 72 h, read-out: cell viability (survival rate), A549, drug 10 μM, 72 hours, WST-1, OD450 nm
[18] = MCF7, 72 h, read-out: cell viability (survival rate), MCF7, drug 10 μM, 72 hours, WST-1, OD450 nm
[19] = A-375, 72 h, read-out: cell viability (survival rate), A375, drug 10 μM, 72 hours, WST-1, OD450 nm
[20] = 72 h, read-out: cell viability (survival rate), PC3, drug 10 μM, 72 hours, WST-1, OD450 nm
[21] = 72 h, read-out: cell viability (survival rate), LoVo, drug 10 μM, 72 hours, WST-1, OD450 nm
[22] = MKN-45, 72 h, read-out: cell viability (survival rate), MKN-45, drug 10 μM, 72 hours, WST-1, OD450 nm
[23] = 72 h, read-out: cell viability (survival rate), AGS, drug 10 μM, 72 hours, WST-1, OD450 nm
[24] = HL-60, 72 h, read-out: cell viability (survival rate), HL-60, drug 10 μM, 72 hours, WST-1, OD450 nm
[25] = HepG2, drug 10 μM, 72 hours, WST-1, OD450 nm, read-out: cell viability (survival rate), HepG2
[26] = NCI-H1650, drug 10 μM, 72 hours, WST-1, OD450 nm, read-out: cell viability (survival rate), H1650
[27] = drug 10 μM, 72 hours, WST-1, OD450 nm, read-out: cell viability (survival rate), HeLa
[28] = drug 10 μM, 72 hours, WST-1, OD450 nm, read-out: cell viability (survival rate), TSGH
[29] = A549, drug 10 μM, 72 hours, WST-1, OD450 nm, read-out: cell viability (survival rate), A549
[30] = MCF7, drug 10 μM, 72 hours, WST-1, OD450 nm, read-out: cell viability (survival rate), MCF7
[31] = A-375, drug 10 μM, 72 hours, WST-1, OD450 nm, read-out: cell viability (survival rate), A375
[32] = drug 10 μM, 72 hours, WST-1, OD450 nm, read-out: cell viability (survival rate), PC3
[33] = drug 10 μM, 72 hours, WST-1, OD450 nm, read-out: cell viability (survival rate), LoVo
[34] = MKN-45, drug 10 μM, 72 hours, WST-1, OD450 nm, read-out: cell viability (survival rate), MKN-45
[35] = drug 10 μM, 72 hours, WST-1, OD450 nm, read-out: cell viability (survival rate), AGS
[36] = HL-60, drug 10 μM, 72 hours, WST-1, OD450 nm, read-out: cell viability (survival rate), HL-60
[37] = HepG2, 72 h, drug 10 μM, 72 hours, WST-1, OD450 nm, read-out: cell viability (survival rate), HepG2
[38] = NCI-H1650, 72 h, drug 10 μM, 72 hours, WST-1, OD450 nm, read-out: cell viability (survival rate), H1650
[39] = 72 h, drug 10 μM, 72 hours, WST-1, OD450 nm, read-out: cell viability (survival rate), HeLa
[40] = 72 h, drug 10 μM, 72 hours, WST-1, OD450 nm, read-out: cell viability (survival rate), TSGH
[41] = A549, 72 h, drug 10 μM, 72 hours, WST-1, OD450 nm, read-out: cell viability (survival rate), A549
[42] = MCF7, 72 h, drug 10 μM, 72 hours, WST-1, OD450 nm, read-out: cell viability (survival rate), MCF7
[43] = A-375, 72 h, drug 10 μM, 72 hours, WST-1, OD450 nm, read-out: cell viability (survival rate), A375
[44] = 72 h, drug 10 μM, 72 hours, WST-1, OD450 nm, read-out: cell viability (survival rate), PC3
[45] = MKN-45, 72 h, drug 10 μM, 72 hours, WST-1, OD450 nm, read-out: cell viability (survival rate), MKN-45
[46] = 72 h, drug 10 μM, 72 hours, WST-1, OD450 nm, read-out: cell viability (survival rate), AGS
[47] = HL-60, 72 h, drug 10 μM, 72 hours, WST-1, OD450 nm, read-out: cell viability (survival rate), HL-60

SMILES | viability at 10 µM [1, 13] | viability at 10 µM [2, 14] | viability at 10 µM [3, 15] | viability at 10 µM [4, 16] | viability at 10 µM [5, 17] | viability at 10 µM [6, 18] | viability at 10 µM [7, 19] | viability at 10 µM [9, 21] | inhibition effect on different cancer cell lines (cancer cell lines) | viability at 10 µM [1, 37] | viability at 10 µM [2, 38] | viability at 10 µM [3, 39] | viability at 10 µM [4, 40] | viability at 10 µM [5, 41] | viability at 10 µM [6, 42] | viability at 10 µM [7, 43] | viability at 10 µM [8, 44] | viability at 10 µM [10, 45] | viability at 10 µM [11, 46] | viability at 10 µM [12, 47] | other results
Cc1ncc([N+](=O)[O-])n1CC(C)O (stereo not shown) [Secnidazole (Flagentyl), Secnidazole] | 99% | 46.8% | 124% | 52.1% | 69.2% | 81% | 117% | 85.4% | significant inhibition effect | – | – | – | – | – | – | – | – | – | – | – | viability at 10 µM [8, 20]: 81.6%; viability at 10 µM [10, 22]: 77.2%; viability at 10 µM [11, 23]: 78%; viability at 10 µM [12, 24]: 97.2%
O=C(Nc1ccccc1)c1ccccc1O [Salicylanilide] | – | – | – | – | – | – | – | – | significant inhibition effect | – | – | – | – | – | – | – | – | – | – | – | viability at 10 µM [1, 25]: 97.2%; viability at 10 µM [2, 26]: 80.5%; viability at 10 µM [3, 27]: 118%; viability at 10 µM [4, 28]: 108%; viability at 10 µM [5, 29]: 62.1%; viability at 10 µM [6, 30]: 106%; viability at 10 µM [7, 31]: 92.8%; viability at 10 µM [8, 32]: 89.7%; viability at 10 µM [9, 33]: 86.2%; viability at 10 µM [10, 34]: 83.5%; viability at 10 µM [11, 35]: 77.8%; viability at 10 µM [12, 36]: 71.1%
Cc1ccnc2c1NC(=O)c1cccnc1N2C1CC1 [Nevirapine (Viramune), Nevirapine] | – | – | – | – | – | – | – | 85.7% | significant inhibition effect | 85.5% | 89.7% | 58.9% | 103% | 45.7% | 38.5% | 66.8% | 84.1% | 68.3% | 115% | 98.7% | –
CCCc1cc(C(N)=S)ccn1 [Protionamide (Prothionamide), Protionamide] | – | – | – | – | – | – | – | 85.6% | significant inhibition effect | 118% | 85% | 97.5% | 103% | 66.2% | 51.2% | 84.9% | 45.2% | 77.6% | 85.9% | 97.6% | –
CCn1cc(C(=O)O)c(=O)c2cc(F)c(N3CCNCC3)cc21 [Norfloxacin (Norxacin), Norfloxacin] | 90.5% | 75% | 78.7% | 75.9% | 84.8% | 94.8% | 73.8% | 88% | significant inhibition effect | – | – | – | – | – | – | – | – | – | – | – | viability at 10 µM [8, 20]: 72.2%; viability at 10 µM [10, 22]: 68.9%; viability at 10 µM [11, 23]: 63.8%; viability at 10 µM [12, 24]: 87.7%
CO[C@H]1/C=C/O[C@@]2(C)Oc3c(C)c(O)c4c(O)c(c(/C=N/N5CCN(C)CC5)c(O)c4c3C2=O)NC(=O)/C(C)=C\C=C\[C@H](C)[C@H](O)[C@@H](C)[C@@H](O)[C@@H](C)[C@H](OC(C)=O)[C@@H]1C [Rifampin (Rifadin, Rimactane), Rifampin] | – | – | – | – | – | – | – | 83.9% | significant inhibition effect | 98.5% | 89.1% | 58.8% | 108% | 45.2% | 39.7% | 61.6% | 69.9% | 61.1% | 111% | 105% | –
Clc1ccc(C(Cn2ccnc2)OCc2c(Cl)cccc2Cl)c(Cl)c1 (stereo not shown) [Isoconazole nitrate (Travogen), Isoconazole nitrate] | – | – | – | – | – | – | – | – | significant inhibition effect | – | – | – | – | – | – | – | – | – | – | – | viability at 10 µM [1, 25]: 99.4%; viability at 10 µM [2, 26]: 102%; viability at 10 µM [3, 27]: 165%; viability at 10 µM [4, 28]: 88.2%; viability at 10 µM [5, 29]: 91.7%; viability at 10 µM [6, 30]: 95.1%; viability at 10 µM [7, 31]: 95%; viability at 10 µM [8, 32]: 82.5%; viability at 10 µM [9, 33]: 102%; viability at 10 µM [10, 34]: 126%; viability at 10 µM [11, 35]: 74.8%; viability at 10 µM [12, 36]: 49.2%
COc1cc(NS(=O)(=O)c2ccc(N)cc2)nc(OC)n1 [Sulphadimethoxine] | 90.3% | 83.1% | 68.8% | 132% | 100% | 94.3% | 76% | 70.8% | significant inhibition effect | – | – | – | – | – | – | – | – | – | – | – | viability at 10 µM [8, 20]: 94%; viability at 10 µM [10, 22]: 72%; viability at 10 µM [11, 23]: 99.3%; viability at 10 µM [12, 24]: 120%
CCOc1ccc2nc3cc(N)ccc3c(N)c2c1 [Ethacridine lactate monohydrate] | – | – | – | – | – | – | – | 50.1% | significant inhibition effect | 65.5% | 52.5% | 39.9% | 46.8% | 75.1% | 68.7% | 40.1% | 64.6% | 49.7% | 38.2% | 44.1% | –
CC(=O)SCC(Cc1ccccc1)C(=O)NCC(=O)OCc1ccccc1 (stereo not shown) [Racecadotril (Acetorphan), Racecadotril] | – | – | – | – | – | – | – | 74.5% | significant inhibition effect | 88.8% | 82.9% | 65.6% | 65.6% | 95.8% | 108% | 66.2% | 107% | 97.4% | 84% | 122% | –

— patent publication US10105357B2, “Indication of antibiotic drugs for preparation of cancer inhibition pharmaceutical composition” (LAUNX BIOMEDICAL CO., LTD., priority 2014, dated 2018)
